# Reference: patent publication US20120245137A1 (Zalicus Pharmaceuticals Ltd., priority 2009, published 2012)
# Like-named read-outs stand apart in the source and are kept apart here.
# Experiments:
# Format in all cases: cell-based
# T-type calcium channel [1] = target: T-type calcium channel (Homo sapiens, UniProt O43497); test: T-type channel blocking, FLIPR data (Table 6); conditions: CAv3.1
# Excerpt: (§1) Another method, high-throughput spectrophotometric assay, utilizes loading of the cell lines with a fluorescent dye sensitive to intracellular calcium concentration and subsequent examination of the effects of compounds on the ability of depolarization by potassium chloride or other means to alter intracellular calcium levels.
# T-type calcium channel [2] = target: T-type calcium channel (Homo sapiens, UniProt O95180); test: T-type channel blocking, FLIPR data (Table 6); conditions: for CAv3.2 IC50 Ratio closed/inact.: CAv3.2, ratio closed/inactivated IC50
# Sequence of T-type calcium channel (Homo sapiens, UniProt O95180) (O95180 whole entry): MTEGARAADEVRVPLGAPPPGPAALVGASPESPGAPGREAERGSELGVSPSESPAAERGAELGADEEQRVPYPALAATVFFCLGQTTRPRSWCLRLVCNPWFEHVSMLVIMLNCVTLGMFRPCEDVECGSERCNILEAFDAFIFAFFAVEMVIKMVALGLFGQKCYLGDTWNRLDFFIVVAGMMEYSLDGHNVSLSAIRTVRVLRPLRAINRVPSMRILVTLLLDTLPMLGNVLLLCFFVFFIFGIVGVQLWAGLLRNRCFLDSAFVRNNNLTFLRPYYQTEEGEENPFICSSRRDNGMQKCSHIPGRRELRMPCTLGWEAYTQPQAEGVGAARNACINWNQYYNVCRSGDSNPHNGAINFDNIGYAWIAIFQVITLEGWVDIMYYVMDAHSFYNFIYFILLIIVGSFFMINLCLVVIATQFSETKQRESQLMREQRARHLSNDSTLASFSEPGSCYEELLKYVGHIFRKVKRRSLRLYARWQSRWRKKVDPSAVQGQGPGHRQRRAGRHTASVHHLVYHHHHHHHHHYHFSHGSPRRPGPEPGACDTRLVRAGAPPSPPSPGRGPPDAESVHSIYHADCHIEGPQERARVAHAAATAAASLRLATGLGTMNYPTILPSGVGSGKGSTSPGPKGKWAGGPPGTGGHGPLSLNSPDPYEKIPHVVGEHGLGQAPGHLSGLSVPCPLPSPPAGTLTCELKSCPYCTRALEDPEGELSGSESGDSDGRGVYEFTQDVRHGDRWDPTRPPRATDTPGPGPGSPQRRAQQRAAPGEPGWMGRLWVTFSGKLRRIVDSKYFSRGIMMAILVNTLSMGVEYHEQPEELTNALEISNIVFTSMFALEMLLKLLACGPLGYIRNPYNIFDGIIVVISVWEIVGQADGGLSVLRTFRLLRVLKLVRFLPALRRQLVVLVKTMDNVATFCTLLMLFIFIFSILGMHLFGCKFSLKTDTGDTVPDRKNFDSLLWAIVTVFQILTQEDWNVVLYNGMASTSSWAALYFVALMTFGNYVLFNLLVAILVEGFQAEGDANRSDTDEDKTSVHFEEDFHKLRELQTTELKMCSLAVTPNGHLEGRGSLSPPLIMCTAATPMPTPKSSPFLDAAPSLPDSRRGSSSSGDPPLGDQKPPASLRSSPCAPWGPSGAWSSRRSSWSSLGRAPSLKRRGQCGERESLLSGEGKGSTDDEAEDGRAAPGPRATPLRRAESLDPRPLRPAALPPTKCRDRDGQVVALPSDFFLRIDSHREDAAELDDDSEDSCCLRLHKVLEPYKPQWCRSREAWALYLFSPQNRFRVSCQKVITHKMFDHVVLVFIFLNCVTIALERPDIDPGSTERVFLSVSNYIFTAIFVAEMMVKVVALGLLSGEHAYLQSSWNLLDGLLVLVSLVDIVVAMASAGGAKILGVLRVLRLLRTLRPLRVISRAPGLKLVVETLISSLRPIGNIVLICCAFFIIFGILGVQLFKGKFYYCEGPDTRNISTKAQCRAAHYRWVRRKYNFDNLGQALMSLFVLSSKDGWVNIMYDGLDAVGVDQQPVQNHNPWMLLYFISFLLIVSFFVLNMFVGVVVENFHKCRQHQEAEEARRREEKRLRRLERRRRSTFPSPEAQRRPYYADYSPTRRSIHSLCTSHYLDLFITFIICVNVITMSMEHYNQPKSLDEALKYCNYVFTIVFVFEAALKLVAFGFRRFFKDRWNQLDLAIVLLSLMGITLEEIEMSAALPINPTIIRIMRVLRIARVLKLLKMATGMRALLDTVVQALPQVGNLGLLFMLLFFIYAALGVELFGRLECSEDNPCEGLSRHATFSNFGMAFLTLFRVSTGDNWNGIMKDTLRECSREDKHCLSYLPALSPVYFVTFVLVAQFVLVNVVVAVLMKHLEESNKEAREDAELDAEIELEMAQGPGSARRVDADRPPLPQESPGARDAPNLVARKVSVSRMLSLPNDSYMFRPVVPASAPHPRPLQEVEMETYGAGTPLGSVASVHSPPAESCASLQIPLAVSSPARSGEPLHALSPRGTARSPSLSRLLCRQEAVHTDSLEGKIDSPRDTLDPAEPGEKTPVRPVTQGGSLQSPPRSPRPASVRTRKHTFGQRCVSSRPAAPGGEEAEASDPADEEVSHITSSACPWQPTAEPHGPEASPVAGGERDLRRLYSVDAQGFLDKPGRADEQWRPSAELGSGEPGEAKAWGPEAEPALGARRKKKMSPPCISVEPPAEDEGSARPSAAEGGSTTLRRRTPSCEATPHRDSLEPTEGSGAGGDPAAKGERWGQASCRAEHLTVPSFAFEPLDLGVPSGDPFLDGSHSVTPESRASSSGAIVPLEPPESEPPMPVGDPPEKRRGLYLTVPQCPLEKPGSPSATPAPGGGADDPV
# Excerpt: as §1
# Human Cav 2.2 channels = Human Cav 2.2 channels (Homo sapiens, UniProt Q00975); test: Fluorescent assay for CaV2.2 channels using potassium depolarization (VIPR/FLIPR); conditions: FLIPR data; for CAv2.2 IC50 Ratio closed/inact.: ratio closed/inactivated IC50
# How it was run: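 HEK293 cells stably expressing human Cav2.2 with α2δ and β subunits plus Kir2.3 were loaded with fluo-4 and incubated 30 min at 25 °C with compound in 4, 12, 25 or 30 mM potassium buffer. Channels were opened with 70 mM potassium (final) and calcium influx was read by fluorescence (Ex 480/Em 535 nm).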
# CAv1.2 = CAv1.2 (Homo sapiens, UniProt Q13936); test: FLIPR data, CAv1.2 channel blocking (Table 6); conditions: for CAv1.2 IC50 Ratio closed/inact.: ratio closed/inactivated IC50
# [3] = CAv3.2, closed state, read-out: CAv3.2 IC50 Closed
# [4] = CAv3.2, inactivated state, read-out: CAv3.2 IC50 Inact.
# [5] = closed state, read-out: CAv2.2 IC50 Closed
# [6] = inactivated state, read-out: CAv2.2 IC50 Inact.
# [7] = closed state, read-out: CAv1.2 IC50 Closed
# [8] = inactivated state, read-out: CAv1.2 IC50 Inact.
# Sequence of T-type calcium channel (Homo sapiens, UniProt O43497) (O43497 whole entry): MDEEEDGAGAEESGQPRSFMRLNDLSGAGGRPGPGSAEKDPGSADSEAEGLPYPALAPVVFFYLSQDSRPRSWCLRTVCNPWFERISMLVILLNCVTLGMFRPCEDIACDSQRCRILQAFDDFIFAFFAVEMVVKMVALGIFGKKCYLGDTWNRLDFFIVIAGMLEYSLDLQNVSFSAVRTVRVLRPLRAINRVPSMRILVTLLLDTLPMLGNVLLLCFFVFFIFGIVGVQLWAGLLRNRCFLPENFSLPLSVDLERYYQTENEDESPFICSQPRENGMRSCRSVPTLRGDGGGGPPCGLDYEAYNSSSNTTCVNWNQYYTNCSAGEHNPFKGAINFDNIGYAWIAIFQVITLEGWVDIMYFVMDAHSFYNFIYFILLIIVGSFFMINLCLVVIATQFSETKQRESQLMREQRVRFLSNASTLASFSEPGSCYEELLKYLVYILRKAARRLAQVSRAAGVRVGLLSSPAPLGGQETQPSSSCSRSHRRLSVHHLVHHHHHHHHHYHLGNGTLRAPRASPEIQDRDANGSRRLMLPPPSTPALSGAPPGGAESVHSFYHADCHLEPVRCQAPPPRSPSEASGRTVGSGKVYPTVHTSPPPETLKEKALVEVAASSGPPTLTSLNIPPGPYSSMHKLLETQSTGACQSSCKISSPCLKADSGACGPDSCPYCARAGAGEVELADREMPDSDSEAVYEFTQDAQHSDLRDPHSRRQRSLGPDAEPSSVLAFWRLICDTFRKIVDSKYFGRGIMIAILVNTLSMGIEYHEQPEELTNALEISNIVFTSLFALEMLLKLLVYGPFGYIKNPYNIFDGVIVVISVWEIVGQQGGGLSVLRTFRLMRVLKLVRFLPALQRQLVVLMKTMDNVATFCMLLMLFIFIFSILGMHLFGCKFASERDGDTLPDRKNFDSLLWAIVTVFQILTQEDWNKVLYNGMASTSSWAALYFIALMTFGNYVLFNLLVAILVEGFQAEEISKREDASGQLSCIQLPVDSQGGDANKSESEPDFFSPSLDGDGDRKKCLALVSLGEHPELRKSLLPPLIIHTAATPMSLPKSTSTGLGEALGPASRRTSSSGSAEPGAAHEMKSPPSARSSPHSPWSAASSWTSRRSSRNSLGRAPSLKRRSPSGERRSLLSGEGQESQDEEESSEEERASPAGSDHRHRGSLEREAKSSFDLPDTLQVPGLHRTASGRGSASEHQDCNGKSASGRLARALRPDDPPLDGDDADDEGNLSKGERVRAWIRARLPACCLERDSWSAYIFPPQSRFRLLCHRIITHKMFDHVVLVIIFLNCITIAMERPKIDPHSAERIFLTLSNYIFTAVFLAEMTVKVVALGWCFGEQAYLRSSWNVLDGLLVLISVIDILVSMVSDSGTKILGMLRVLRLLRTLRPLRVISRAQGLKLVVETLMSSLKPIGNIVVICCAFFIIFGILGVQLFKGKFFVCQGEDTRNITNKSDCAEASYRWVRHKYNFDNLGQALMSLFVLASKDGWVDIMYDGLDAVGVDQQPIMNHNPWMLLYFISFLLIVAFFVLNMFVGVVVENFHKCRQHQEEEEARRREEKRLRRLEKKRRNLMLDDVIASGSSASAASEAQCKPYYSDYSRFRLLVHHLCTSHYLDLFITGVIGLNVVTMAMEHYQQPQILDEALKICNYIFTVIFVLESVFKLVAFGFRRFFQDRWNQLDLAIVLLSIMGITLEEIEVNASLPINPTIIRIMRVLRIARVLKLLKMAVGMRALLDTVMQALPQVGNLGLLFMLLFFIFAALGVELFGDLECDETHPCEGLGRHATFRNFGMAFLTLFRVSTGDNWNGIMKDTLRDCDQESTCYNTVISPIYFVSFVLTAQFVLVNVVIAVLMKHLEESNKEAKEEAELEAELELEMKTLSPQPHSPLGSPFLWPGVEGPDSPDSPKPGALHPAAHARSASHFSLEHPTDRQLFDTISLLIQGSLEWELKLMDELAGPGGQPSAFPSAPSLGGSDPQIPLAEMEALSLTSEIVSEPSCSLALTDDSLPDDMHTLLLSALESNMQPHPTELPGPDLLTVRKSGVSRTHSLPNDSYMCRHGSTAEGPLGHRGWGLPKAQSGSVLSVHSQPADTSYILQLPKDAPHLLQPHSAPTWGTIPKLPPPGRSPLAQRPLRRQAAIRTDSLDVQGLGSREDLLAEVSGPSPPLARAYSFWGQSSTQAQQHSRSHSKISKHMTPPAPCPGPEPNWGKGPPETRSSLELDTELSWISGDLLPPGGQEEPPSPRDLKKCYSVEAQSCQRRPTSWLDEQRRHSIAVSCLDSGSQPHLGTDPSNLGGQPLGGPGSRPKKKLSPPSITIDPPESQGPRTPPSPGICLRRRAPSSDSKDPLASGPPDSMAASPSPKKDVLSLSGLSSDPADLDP
Compound,IC50 (T-type calcium channel [1]) [µM],IC50 (T-type calcium channel [2]; [3]) [µM],IC50 (T-type calcium channel [2]; [4]) [µM],CAv3.2 IC50 Ratio closed/inact. (T-type calcium channel [2]),IC50 (Human Cav 2.2 channels; [5]) [µM],IC50 (Human Cav 2.2 channels; [6]) [µM],CAv2.2 IC50 Ratio closed/inact. (Human Cav 2.2 channels),IC50 (CAv1.2; [7]) [µM],IC50 (CAv1.2; [8]) [µM],CAv1.2 IC50 Ratio closed/inact. (CAv1.2)
CC(C)([C@H]1C[C@H](NS(=O)(=O)c2ccc(F)c(Cl)c2)C1)S(=O)(=O)c1cccc(C(F)(F)F)c1 [Compound 664],2.93,3.08,2.79,1.1,8.05,1.06,7.6,≥ 10,3.67,2.7
CC(C)([C@H]1C[C@H](NS(=O)(=O)c2ccc(Cl)c(F)c2)C1)S(=O)(=O)c1cccc(C(F)(F)F)c1 [Compound 665],2.77,3.03,2.66,1.1,7.26,0.8,9.1,8.94,4.21,2.1
CC(C)([C@H]1C[C@H](NS(=O)(=O)c2ccc(C(F)(F)F)cc2Cl)C1)S(=O)(=O)c1cccc(C(F)(F)F)c1 [Compound 666],1.59,2.16,2.17,1,10,0.65,15.4,≥ 10,2.29,4.4
CC(C)([C@H]1C[C@H](NS(=O)(=O)c2ccc(F)c(C(F)(F)F)c2)C1)S(=O)(=O)c1cccc(C(F)(F)F)c1 [Compound 667],2.5,2.7,2.16,1.3,10,1.08,9.3,7.76,2.56,3
CC(C)([C@H]1C[C@H](NS(=O)(=O)c2ccc(C(F)(F)F)nc2)C1)S(=O)(=O)c1cccc(C(F)(F)F)c1 [Compound 668],2.95,3.83,2.92,1.3,7.34,0.79,9.3,≥ 10,3.73,2.7
CC(C)([C@H]1C[C@H](NS(=O)(=O)c2ccc(OC(F)(F)F)cc2)C1)S(=O)(=O)c1cccc(C(F)(F)F)c1 [Compound 669],2.74,2.65,2.55,1,7.9,0.96,8.2,≥ 10,3.33,3
CC(C)([C@H]1C[C@H](NC(=O)c2ccc(Cl)cn2)C1)S(=O)(=O)c1cccc(C(F)(F)F)c1 [Compound 673],6.56,5.37,4.33,1.2,1.88,0.2,9.4,≥ 10,4.57,2.2
CC(C)S(=O)(=O)c1cc(C(F)(F)F)cnc1C(=O)NC[C@H]1C[C@@H](C(C)(C)S(=O)(=O)c2cccc(C(F)(F)F)c2)C1 [Compound 681],4.82,5.93,,,9.89,0.16,61.8,≥ 10,2.62,3.8
CC(C)(C1CC(CNC(=O)c2cc(C(F)(F)F)n[nH]2)C1)S(=O)(=O)c1cccc(C(F)(F)F)c1 (stereo not shown) [Compound 682],≥ 10,2.31,,,6.64,0.53,12.5,≥ 10,2.16,4.6
CC(C)([C@H]1C[C@@H](CNC(=O)c2ccnc(C(F)(F)F)n2)C1)S(=O)(=O)c1cccc(C(F)(F)F)c1 [Compound 683],5.53,5.45,,,2.77,0.26,10.7,≥ 10,6.11,1.6
CC(C)([C@H]1C[C@@H](CNC(=O)c2ccc(F)c(Cl)c2)C1)S(=O)(=O)c1cccc(C(F)(F)F)c1 [Compound 685],0.38,0.44,,,1.87,0.18,10.4,4.71,1.01,4.7
CC(C)([C@H]1C[C@@H](CNC(=O)c2ccc(OCC(F)(F)F)nc2)C1)S(=O)(=O)c1cccc(C(F)(F)F)c1 [Compound 686],1.17,1.2,,,2.47,0.26,9.5,4.42,1.1,4
CC(C)([C@H]1C[C@@H](CNC(=O)c2ccc(Cl)c(OC(F)(F)F)c2)C1)S(=O)(=O)c1cccc(C(F)(F)F)c1 [Compound 688],0.25,0.45,0.17,2.6,3.4,0.22,15.5,4.59,0.45,10.2
CC(C)([C@H]1C[C@@H](CNC(=O)c2ncc(C(F)(F)F)cc2S(C)(=O)=O)C1)S(=O)(=O)c1cccc(C(F)(F)F)c1 [Compound 690],≥ 10,≥ 10,,,10,0.45,22.2,≥ 10,≥ 10,
CC(C)([C@H]1C[C@@H](CNc2ccnc(C(F)(F)F)n2)C1)S(=O)(=O)c1cccc(C(F)(F)F)c1 [Compound 691],5.83,7.35,,,4.03,0.53,7.6,4.94,2.22,2.2

# Now from value to compound, other results behind:
IC50 (T-type calcium channel [1]) [µM],IC50 (T-type calcium channel [2]; [3]) [µM],IC50 (T-type calcium channel [2]; [4]) [µM],CAv3.2 IC50 Ratio closed/inact. (T-type calcium channel [2]),IC50 (Human Cav 2.2 channels; [5]) [µM],IC50 (Human Cav 2.2 channels; [6]) [µM],CAv2.2 IC50 Ratio closed/inact. (Human Cav 2.2 channels),Compound,IC50 (CAv1.2; [7]) [µM],IC50 (CAv1.2; [8]) [µM],CAv1.2 IC50 Ratio closed/inact. (CAv1.2)
9.28,5.73,6.36,0.9,5.47,0.28,19.5,CC(C)([C@H]1C[C@H](NC(=O)c2cncc(C(F)(F)F)c2)C1)S(=O)(=O)c1cccc(C(F)(F)F)c1 [Compound 671],≥ 10,7.82,1.3
5.05,5.93,4.05,1.5,7.42,0.31,23.9,CC(C)([C@H]1C[C@H](NC(=O)c2ccnc(C(F)(F)F)c2)C1)S(=O)(=O)c1cccc(C(F)(F)F)c1 [Compound 672],≥ 10,3.3,3
9.43,2.74,2.39,1.1,3.01,0.29,10.4,CC(C)([C@H]1C[C@H](NC(=O)c2ccc(OCC(F)(F)F)nc2)C1)S(=O)(=O)c1cccc(C(F)(F)F)c1 [Compound 674],7.73,1.74,4.4
≥ 10,7.76,6.23,1.2,8.63,0.49,17.6,CC(C)([C@H]1C[C@H](NC(=O)c2ccc(C(F)(F)F)nc2)C1)S(=O)(=O)c1cccc(C(F)(F)F)c1 [Compound 675],≥ 10,5.99,1.7
3.87,4.27,3.79,1.1,1.85,0.16,11.6,CC(C)([C@H]1C[C@H](NC(=O)c2ccc(C(F)(F)F)cn2)C1)S(=O)(=O)c1cccc(C(F)(F)F)c1 [Compound 676],7.96,3.25,2.4
2.79,1.78,1.82,1,2.86,0.22,13,CC(C)([C@H]1C[C@H](NC(=O)c2ccc(C(F)(F)F)cc2)C1)S(=O)(=O)c1cccc(C(F)(F)F)c1 [Compound 677],6.35,2.23,2.8
4.65,4.67,,,8.03,0.65,12.4,CC(C)([C@H]1C[C@@H](CNC(=O)c2ncc(C(F)(F)F)cn2)C1)S(=O)(=O)c1cccc(C(F)(F)F)c1 [Compound 684],≥ 10,5.35,1.9
2.61,1.65,,,4.11,0.53,7.8,CC(C)([C@H]1C[C@@H](CNC(=O)c2ccnc(C(F)(F)F)c2)C1)S(=O)(=O)c1cccc(C(F)(F)F)c1 [Compound 687],≥ 10,2.39,4.2
